From patent publication US9334263B2, “Compositions useful for treating disorders related to kit” (BLUEPRINT MEDICINES CORPORATION, priority 2013, dated 2016)

How the values were obtained:
D816V Kit = target: T1, D816V Kit (Homo sapiens, UniProt P10721, D816V); assay: Kit D816V assay at Km (Caliper electrophoretic mobility shift); format: biochemical; conditions: 15 uM ATP, 25 C, 90 minutes
T1 construct: purchased Carna Bioscience 08-156
Outline: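 Read-out is the ratio of phosphorylated to unphosphorylated fluorescent peptide, resolved by mobility shift on a Caliper EZ Reader 2.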

wild type Kit = target: T2, wild type Kit (Homo sapiens, UniProt P10721); assay: Kit wild type assay at Km (Caliper electrophoretic mobility shift); format: biochemical; conditions: 400 uM ATP, 25 C, 90 minutes; read-out: WT KIT
T2 construct: purchased Carna Bioscience 08-156
T2 sequence (P10721 26-976): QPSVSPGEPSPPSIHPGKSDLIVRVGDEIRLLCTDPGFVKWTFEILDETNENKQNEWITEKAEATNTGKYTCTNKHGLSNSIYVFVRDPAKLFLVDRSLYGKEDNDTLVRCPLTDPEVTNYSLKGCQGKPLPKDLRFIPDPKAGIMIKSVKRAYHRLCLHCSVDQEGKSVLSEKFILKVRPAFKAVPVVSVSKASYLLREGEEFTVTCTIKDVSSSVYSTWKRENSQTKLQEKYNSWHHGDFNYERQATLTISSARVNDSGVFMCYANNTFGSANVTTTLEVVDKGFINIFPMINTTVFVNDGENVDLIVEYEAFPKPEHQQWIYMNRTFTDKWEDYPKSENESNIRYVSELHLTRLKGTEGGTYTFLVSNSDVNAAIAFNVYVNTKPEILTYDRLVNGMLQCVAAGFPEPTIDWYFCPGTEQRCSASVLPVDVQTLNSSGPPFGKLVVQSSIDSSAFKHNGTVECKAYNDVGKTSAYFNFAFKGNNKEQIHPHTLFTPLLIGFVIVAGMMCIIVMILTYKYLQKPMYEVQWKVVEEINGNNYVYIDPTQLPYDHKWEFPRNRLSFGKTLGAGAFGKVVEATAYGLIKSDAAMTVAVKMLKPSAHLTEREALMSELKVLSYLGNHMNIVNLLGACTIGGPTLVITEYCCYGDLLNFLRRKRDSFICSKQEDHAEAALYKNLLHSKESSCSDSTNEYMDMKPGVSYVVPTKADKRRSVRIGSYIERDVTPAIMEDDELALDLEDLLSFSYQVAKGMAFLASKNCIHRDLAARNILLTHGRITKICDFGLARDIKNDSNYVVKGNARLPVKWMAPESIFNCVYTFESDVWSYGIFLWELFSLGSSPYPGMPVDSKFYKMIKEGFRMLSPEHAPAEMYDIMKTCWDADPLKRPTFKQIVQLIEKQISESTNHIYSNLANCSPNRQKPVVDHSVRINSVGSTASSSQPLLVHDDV
Description: In order to assess the activity of chemical compounds against the relevant kinase of interest, the Caliper LifeSciences electrophoretic mobility shift technology platform is used. Fluorescently labeled substrate peptide is incubated in the presence of kinase and ATP so that a […] proportion of the peptide is phosphorylated. At the end of the reaction, the mix of phosphorylated (product) and non-phosphorylated (substrate) peptides are passed through the microfluidic system of the Caliper EZ Reader 2, under an applied potential difference. The presence of the phosphate group on the product peptide provides a difference in mass and charge between those of the substrate peptide, resulting in a separation of the substrate and product pools in the sample. As the pools pass a LEDS within the instrument, these pools are detected and resolved as separate peaks. The ratio between these peaks therefore reflects the activity of the chemical matter at that concentration in that well, under those conditions.
The reaction was stopped by the addition of 70 ul of Stop buffer (100 mM HEPES pH 7.5, 0.015% Brij 35, 35 mM EDTA and 0.2% of Coating Reagent 3 (Caliper Lifesciences)). The plate was then read on a Caliper EZReader 2 (protocol settings: −1.9 psi, upstream voltage −700, downstream voltage −3000, post sample sip 35 s).

[1] = target: T3, Kit D816V (HMC1.2 cells, Kit V560G and D816V) (Homo sapiens, UniProt P10721, D816V/V560G); assay: HMC1.2 autophosphorylation assay (AlphaLISA, phospho-Y719 c-Kit); format: cell-based; conditions: Kit autophosphorylation at tyrosine 719, 90 minutes, read-out: Cellular Activity
T3 construct: endogenous in cells; host or cells: HMC1.2 cells
T3 sequence (P10721 26-976 V560G/D816V): as the sequence (P10721 26-976) above, with V535G, D791V counted along it
Outline: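 Serum-starved (overnight, serum-free IMDM) HMC1.2 cells were treated for 90 min with a 10-point compound series (25 uM–95.4 pM, 0.25% DMSO final). Lysates were probed with phospho-Y719 and total c-Kit antibodies (15 nM final) plus AlphaLISA acceptor and streptavidin donor beads (2 h each, RT), with AlphaScreen read-out.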

T1 sequence (P10721 26-976 D816V): as the sequence (P10721 26-976) above, with D791V counted along it

| IC50 (D816V Kit) [µM] | IC50 (wild type Kit) [µM] | IC50 [1] [µM] | Structure (SMILES) |
| --- | --- | --- | --- |
| 0.00101 to 0.01 | 0.1 to 1 | 1 to 10 | c1ccc(Cc2cnc(N3CCN(c4ncnc(Nc5cc[nH]n5)n4)CC3)nc2)cc1 [Compound 5] |
| 0.00101 to 0.01 | 0.011 to 0.1 | 1 to 10 | c1ccc(Cc2cnc(N3CCN(c4ncnc(Nc5ccccc5)n4)CC3)nc2)cc1 [Compound 7] |
| 0.01 to 0.1 | 0.1 to 1 |  | c1ccc(Nc2cnc(N3CCN(c4ncnc(Nc5ccccc5)n4)CC3)nc2)cc1 [Compound 9] |
| < 0.001 | < 0.01 | 0.01 to 0.1 | Nc1cncc(Nc2ncnc(N3CCN(c4ncc(Cc5ccccc5)cn4)CC3)n2)c1 [Compound 13] |
| < 0.001 | 0.011 to 0.1 | 0.1 to 1 | NCc1cccc(Nc2ncnc(N3CCN(c4ncc(Cc5ccccc5)cn4)CC3)n2)c1 [Compound 14] |
| < 0.001 | 0.011 to 0.1 | 0.1 to 1 | OCc1ccc(Nc2ncnc(N3CCN(c4ncc(Cc5ccccc5)cn4)CC3)n2)cc1 [Compound 16] |
| 0.00101 to 0.01 | 0.1 to 1 | 0.1 to 1 | CC(=O)c1cccc(Nc2ncnc(N3CCN(c4ncc(Cc5ccccc5)cn4)CC3)n2)c1 [Compound 22] |
| 0.00101 to 0.01 | 0.011 to 0.1 | 0.1 to 1 | NC(=O)c1cccc(Nc2ncnc(N3CCN(c4ncc(Cc5ccccc5)cn4)CC3)n2)c1 [Compound 23] |
| 0.00101 to 0.01 | 0.011 to 0.1 | 0.1 to 1 | NC(=O)c1ccc(Nc2ncnc(N3CCN(c4ncc(Cc5ccccc5)cn4)CC3)n2)cc1 [Compound 24] |
| 0.00101 to 0.01 | 0.011 to 0.1 | 0.1 to 1 | CC(O)c1cccc(Nc2ncnc(N3CCN(c4ncc(Cc5ccccc5)cn4)CC3)n2)c1 (stereo not drawn) [Compound 26] |
| < 0.001 | < 0.01 | 0.01 to 0.1 | COCCn1cc(Nc2ncnc(N3CCN(c4ncc(Cc5ccccc5)cn4)CC3)n2)cn1 [Compound 31] |
| > 0.1 | > 1 |  | c1ccc(Cc2cnc(N3CCN(c4ncnc(NCCCN5CCOCC5)n4)CC3)nc2)cc1 [Compound 37] |
| 0.01 to 0.1 | 0.011 to 0.1 |  | CS(=O)(=O)c1ccc(Nc2ncnc(N3CCN(C(=O)Nc4ccc(C#N)cc4)CC3)n2)cc1 [Compound 40] |
| < 0.001 | < 0.01 | 0.01 to 0.1 | c1ccc(Cc2cnc(N3CCN(c4ncnc(Nc5ccc6c(c5)CNCC6)n4)CC3)nc2)cc1 [Compound 41] |
| 0.00101 to 0.01 | 0.011 to 0.1 | 0.01 to 0.1 | c1ccc(Cc2cnc(N3CCN(c4ncnc(Nc5ccc6c(c5)NCCC6)n4)CC3)nc2)cc1 [Compound 42] |
| < 0.001 | 0.011 to 0.1 | 0.01 to 0.1 | CN(C)Cc1cccc(Nc2ncnc(N3CCN(c4ncc(Cc5ccccc5)cn4)CC3)n2)c1 [Compound 49] |
| 0.00101 to 0.01 | 0.011 to 0.1 | 1 to 10 | CC(C)(O)c1cccc(Nc2ncnc(N3CCN(c4ncc(Cc5ccccc5)cn4)CC3)n2)c1 [Compound 50] |
| < 0.001 | 0.011 to 0.1 | 0.01 to 0.1 | c1ccc(Cc2cnc(N3CCN(c4ncnc(Nc5cnn(CC6CNC6)c5)n4)CC3)nc2)cc1 [Compound 51] |
| 0.00101 to 0.01 | 0.1 to 1 |  | COc1cc(Nc2ncnc(N3CCN(c4ncc(Cc5ccccc5)cn4)CC3)n2)cc(OC)c1 [Compound 54] |
| > 0.1 | 0.1 to 1 |  | N#Cc1ccc(NC(=O)N2CCN(c3ncnc(Nc4ccc(N5CCOCC5)cc4)n3)CC2)cc1 [Compound 59] |
| < 0.001 | 0.011 to 0.1 | 0.01 to 0.1 | CN(C)CCn1cc(Nc2ncnc(N3CCN(c4ncc(Cc5ccccc5)cn4)CC3)n2)cn1 [Compound 60] |
| < 0.001 | 0.011 to 0.1 | 0.01 to 0.1 | OCC(O)Cn1cc(Nc2ncnc(N3CCN(c4ncc(Cc5ccccc5)cn4)CC3)n2)cn1 (stereo not drawn) [Compound 64, 3-(4-(4-(4-(5-benzylpyrimidin-2-yl)piperazin-1-yl)-1,3,5-triazin-2-ylamino)-1H-pyrazol-1-yl)propane-1,2-diol] |
| < 0.001 | 0.011 to 0.1 | 0.01 to 0.1 | CC(=O)NCc1cccc(Nc2ncnc(N3CCN(c4ncc(Cc5ccccc5)cn4)CC3)n2)c1 [Compound 74] |
| < 0.001 | < 0.01 | 0.01 to 0.1 | c1ccc(Cc2cnc(N3CCN(c4ncnc(Nc5ccc6c(c5)CNCCO6)n4)CC3)nc2)cc1 [Compound 76] |

| IC50 (D816V Kit) [µM] | IC50 (wild type Kit) [µM] | IC50 [1] [µM] | Structure (SMILES) |
| --- | --- | --- | --- |
| < 0.001 | < 0.01 | 0.01 to 0.1 | c1ccc(Cc2cnc(N3CCN(c4ncnc(Nc5cnn(C[C@H]6CCCN6)c5)n4)CC3)nc2)cc1 [Compound 84] |
| < 0.001 | 0.011 to 0.1 | 0.01 to 0.1 | c1ccc(Cc2cnc(N3CCN(c4ncnc(Nc5cnn(C[C@@H]6CCCN6)c5)n4)CC3)nc2)cc1 [Compound 85] |
| < 0.001 | 0.011 to 0.1 | 0.01 to 0.1 | c1ccc(Cc2cnc(N3CCN(c4ncnc(Nc5cnn(CC6CCOC6)c5)n4)CC3)nc2)cc1 (stereo not drawn) [Compound 86] |
| < 0.001 | 0.011 to 0.1 | 0.1 to 1 | CP(C)(=O)c1ccc(Nc2ncnc(N3CCN(c4ncc(Cc5ccccc5)cn4)CC3)n2)cc1 [Compound 89] |
| 0.00101 to 0.01 | 0.011 to 0.1 | 0.01 to 0.1 | CS(=O)(=O)c1ccc(Nc2ncnc(N3CCN(c4ncc(Cc5ccccc5)cn4)CC3)n2)cc1 [Compound 94] |
| < 0.001 |  | 0.01 to 0.1 | OC[C@@H]1CN(c2ncnc(Nc3cnn(CC4CNCCO4)c3)n2)CCN1c1ncc(Cc2ccccc2)cn1 (stereo partly drawn) [Compound 248] |
| 0.00101 to 0.01 |  | 0.01 to 0.1 | COc1cccc(Cc2cnc(N3CCN(c4ncnc(Nc5cnn(C[C@@H]6CNCCO6)c5)n4)CC3)nc2)c1 [Compound 249] |
| < 0.001 |  | 0.01 to 0.1 | CC(O)(c1ccccc1)c1cnc(N2CCN(c3ncnc(Nc4cnn(C[C@@H]5CNCCO5)c4)n3)CC2)nc1 (stereo partly drawn) [Compound 250] |
| 0.00101 to 0.01 |  | 0.1 to 1 | Fc1ccccc1Sc1cnc(N2CCN(c3ncnc(Nc4ccc(C5CNCCO5)cc4)n3)CC2)nc1 (stereo not drawn) [Compound 251] |
| 0.00101 to 0.01 |  | 0.01 to 0.1 | CN(C)S(=O)(=O)Cc1ccc(Nc2ncnc(N3CCN(c4ncc(Cc5ccccc5)cn4)CC3)n2)cc1 [Compound 252] |
| 0.00101 to 0.01 |  | 0.01 to 0.1 | Fc1ccc(OCc2cnc(N3CCN(c4ncnc(Nc5cnn(C[C@@H]6CNCCO6)c5)n4)CC3)nc2)cc1 [Compound 253] |
| < 0.001 |  | 0.01 to 0.1 | Fc1ccccc1Sc1cnc(N2CCN(c3ncnc(Nc4cnn(C[C@@H]5CNCCO5)c4)n3)CC2)nc1 [Compound 255] |
| 0.00101 to 0.01 |  | 0.1 to 1 | Fc1cccc(Sc2cnc(N3CCN(c4ncnc(Nc5cnn(C[C@@H]6CNCCO6)c5)n4)CC3)nc2)c1 [Compound 257] |
| 0.00101 to 0.01 |  | 0.01 to 0.1 | Fc1ccc(Sc2ncc(N3CCN(c4ncnc(Nc5cnn(C[C@@H]6CNCCO6)c5)n4)CC3)nn2)cc1 [Compound 258] |
| < 0.001 |  | 0.01 to 0.1 | CC(C)(O)CN1CCc2ccc(Nc3ncnc(N4CCN(c5ncc(Cc6ccccc6)cn5)CC4)n3)cc2C1 [Compound 262] |
| 0.00101 to 0.01 |  | 0.1 to 1 | Cc1c(Nc2ncnc(N3CCN(c4ncc(Sc5ccccc5F)cn4)[C@H](C)C3)n2)cnn1C[C@H](O)CO [Compound 264] |
| < 0.001 |  | 0.01 to 0.1 | CC(C)(c1ccc(F)cc1)c1cnc(N2CCN(c3ncnc(Nc4cnn(C[C@@H]5CNCCO5)c4)n3)CC2)nc1 [Compound 267] |
| < 0.001 |  | 0.01 to 0.1 | C[C@](O)(c1ccc(F)cc1)c1cnc(N2CCN(c3ncnc(Nc4cnn(C[C@@H]5CNCCO5)c4)n3)CC2)nc1 [Compound 269] |
| < 0.001 |  | 0.01 to 0.1 | Cc1c(Nc2ncnc(N3CCN(c4ncc(Cc5ccccc5F)cn4)CC3)n2)cnn1C[C@@H]1CNCCO1 [Compound 272] |
| 0.00101 to 0.01 |  | 0.01 to 0.1 | Cc1c(Nc2ncnc(N3CCN(c4ncc(Sc5ccc(F)cc5)cn4)CC3)n2)cnn1C[C@@H]1CNCCO1 [Compound 273] |
| 0.01 to 0.1 | 0.1 to 1 |  | c1ccc(Cc2cnc(N3CCN(c4ncnc(Nc5ccc6c(c5)CNCC6)n4)C(Cc4ccccc4)C3)nc2)cc1 (stereo not drawn) [Compound 274] |
| < 0.001 |  | 0.01 to 0.1 | C[C@](N)(c1ccc(F)cc1)c1cnc(N2CCN(c3ncnc(Nc4ccc(N5CCC[C@H](O)C5)cc4)n3)CC2)nc1 [Compound 275] |
| 0.00101 to 0.01 |  | 0.01 to 0.1 | Cc1c(Nc2ncnc(N3CCN(c4ncc([C@@](C)(O)c5ccc(F)cc5)cn4)CC3)n2)cnn1C[C@@H]1CNCCO1 [Compound 276] |
| < 0.001 |  | 0.01 to 0.1 | Cc1c(Nc2ncnc(N3CCN(c4ncc([C@](C)(O)c5ccc(F)cc5)cn4)CC3)n2)cnn1C[C@@H]1CNCCO1 [Compound 277] |
